Tested on: A2780 cells
Assay: In vitro cell proliferation assay (SRB assay)
Type: cell-based
Conditions: Homo sapiens, 72 h incubation, SRB staining
Description: In Vitro Cell Proliferation Assay (SRB Assay)
A2780 cells were seeded in 96-well plates at 2000 cells/well in 100 μL of culture medium, 4 wells were left empty for media only controls.
After 24 h the compound titrations were performed, in a separate dilution plate, by serially diluting the compounds of general formula (I) in culture medium. A 100 μL of each dilution was added to the plated cells, this was done in quadruplicate, and controls (e.g. DMSO and blanks) were included. The plates were incubated for 72 h at 37° C. in a CO2 incubator. 50 μL cold 50% trichloroacetic acid was then added to each well. After 1 h the supernatant was discarded and the wells were washed 5 times with tap water and dried at room temperature. […] Bound stain was subsequently solubilized by addition of 200 μL 10 mM Tris pH 10.5 to each well, and the plates were shaken for at least 30 minutes, and the absorbance read on an automated plate reader at 515 nm. Using the nine absorbance measurements [time zero, (Tz), control growth, (C), and test growth in the presence of drug at the seven concentration levels (Ti)], the percentage growth is calculated at each of the drug concentrations levels after averaging the quadruplet wells. Percentage growth inhibition is calculated as: [(Ti−Tz)/(C−Tz)]×100 for concentrations for which Ti>/=Tz [(Ti−Tz)/Tz]×100 for concentrations for which Ti<Tz. […]

- IC50: 40 nM
SMILES: O=c1c(NCCCCCCOc2ccc(Cl)cc2)c(Nc2ccncc2)c1=O [SQ-7B, 3-(6-(4-chlorophenoxy)hexylamino)-4-(pyridine-4-ylamino)-cyclobut-3-ene-1,2-dione]

From patent publication US9006426B2, “Squaric acid derivatives as inhibitors of the nicotinamide” (Topotarget A/S, priority 2008, dated 2015)
